Source: the NIST ThermoML archive (doi:10.1021/acs.jced.5b00251)
± gives the expanded uncertainty stated by the source.

Assay: refractive index (other wavelength) (dimensionless)
Details: 101 kPa, Liquid, Standard Abbe refractometry

c1ccc2c(c1)CCCC2 [1,2,3,4-tetrahydronaphthalene]
refractive index
Details	293.15 K	298.15 K	303.15 K	308.15 K	313.15 K	318.15 K
Wavelength=436.1 nm	1.56232 ± 0.00078	1.5598 ± 0.00078	1.55719 ± 0.00078	1.55471 ± 0.00077	1.55219 ± 0.00077	1.54974 ± 0.00077
Wavelength=513.9 nm	1.54872 ± 0.001	1.54625 ± 0.00077	1.54373 ± 0.00076	1.5413 ± 0.00076	1.53886 ± 0.00076	1.53647 ± 0.00059
Wavelength=589.3 nm	1.5412 ± 0.00082	1.53875 ± 0.00076	1.53628 ± 0.00075	1.53389 ± 0.00075	1.53148 ± 0.00075	1.52912 ± 0.00067
Wavelength=633.2 nm	1.53808 ± 0.00078	1.53565 ± 0.00075	1.53321 ± 0.00075	1.53083 ± 0.00074	1.52844 ± 0.00073	1.52629 ± 0.0007
Wavelength=657.2 nm	1.53694 ± 0.00075	1.53452 ± 0.00075	1.53208 ± 0.00074	1.52971 ± 0.00074	1.52732 ± 0.00074	1.52495 ± 0.00074

CC(C)Cc1ccccc1 [(2-methylpropyl)benzene]
refractive index
Details	293.15 K	298.15 K	303.15 K	308.15 K	313.15 K	318.15 K
Wavelength=436.1 nm	1.50429 ± 0.00078	1.50172 ± 0.00078	1.49916 ± 0.00078	1.49659 ± 0.00078	1.494 ± 0.00078	1.49143 ± 0.00078
Wavelength=513.9 nm	1.4927 ± 0.001	1.49023 ± 0.00076	1.48772 ± 0.00077	1.48521 ± 0.00077	1.48268 ± 0.00076	1.48023 ± 0.0006
Wavelength=589.3 nm	1.48654 ± 0.0008	1.48406 ± 0.00076	1.4815 ± 0.00076	1.47904 ± 0.00075	1.47657 ± 0.00076	1.47409 ± 0.0007
Wavelength=633.2 nm	1.48377 ± 0.00078	1.48132 ± 0.00075	1.47888 ± 0.00075	1.47643 ± 0.00075	1.47397 ± 0.00075	1.47151 ± 0.00072
Wavelength=657.2 nm	1.48286 ± 0.00076	1.48035 ± 0.00075	1.47798 ± 0.00074	1.47555 ± 0.00075	1.47309 ± 0.00075	1.47063 ± 0.00075

CCCCCCCCCCCC [dodecane]
refractive index
Details	293.15 K	298.15 K	303.15 K	308.15 K	313.15 K	318.15 K
Wavelength=436.1 nm	1.43105 ± 0.00072	1.42886 ± 0.00072	1.42666 ± 0.00072	1.42445 ± 0.00072	1.42223 ± 0.00072	1.42001 ± 0.00072
Wavelength=513.9 nm	1.42506 ± 0.00082	1.42291 ± 0.00071	1.42074 ± 0.00072	1.41857 ± 0.00072	1.41638 ± 0.00072	1.41418 ± 0.00063
Wavelength=589.3 nm	1.42171 ± 0.00074	1.41957 ± 0.00071	1.41742 ± 0.00071	1.41527 ± 0.00071	1.41309 ± 0.00071	1.41093 ± 0.00069
Wavelength=633.2 nm	1.42031 ± 0.00073	1.41815 ± 0.00071	1.41601 ± 0.00071	1.41385 ± 0.00071	1.41171 ± 0.00072	1.40943 ± 0.0007
Wavelength=657.2 nm	1.41993 ± 0.00071	1.41777 ± 0.00071	1.41564 ± 0.00071	1.4135 ± 0.00071	1.41134 ± 0.00071	1.4092 ± 0.00071
